Data: the NIST ThermoML archive (doi:10.1021/je900164a)
Numbers after ± are expanded uncertainties.

Experiment: xn = mol fraction of the nth substance listed
Settings: 101 kPa, Liquid, Vibrating tube method

CNC(=O)NC [1,3-dimethylurea] + O
mass density (274.15 K, x1 = 0.000898): 1000.36 ± 0.04 kg/m3 | mass density (274.15 K, x1 = 0.0018): 1000.83 ± 0.041 kg/m3 | mass density (274.15 K, x1 = 0.00448): 1002.26 ± 0.041 kg/m3 | mass density (274.15 K, x1 = 0.00893): 1004.68 ± 0.043 kg/m3 | mass density (274.15 K, x1 = 0.01771): 1009.58 ± 0.049 kg/m3 | mass density (274.15 K, x1 = 0.02461): 1013.5 ± 0.053 kg/m3 | mass density (274.15 K, x1 = 0.03141): 1017.27 ± 0.059 kg/m3 | mass density (274.15 K, x1 = 0.03815): 1021.02 ± 0.065 kg/m3 | mass density (274.15 K, x1 = 0.04471): 1024.43 ± 0.072 kg/m3 | mass density (274.15 K, x1 = 0.05126): 1027.8 ± 0.078 kg/m3 | mass density (274.15 K, x1 = 0.06722): 1035.64 ± 0.096 kg/m3 | mass density (274.15 K, x1 = 0.08246): 1042.41 ± 0.12 kg/m3 | mass density (275.15 K, x1 = 0.000898): 1000.39 ± 0.04 kg/m3 | mass density (275.15 K, x1 = 0.0018): 1000.85 ± 0.041 kg/m3 | mass density (275.15 K, x1 = 0.00448): 1002.25 ± 0.065 kg/m3 | mass density (275.15 K, x1 = 0.00893): 1004.65 ± 0.043 kg/m3 | mass density (275.15 K, x1 = 0.01771): 1009.48 ± 0.048 kg/m3 | mass density (275.15 K, x1 = 0.02461): 1013.35 ± 0.053 kg/m3 | mass density (275.15 K, x1 = 0.03141): 1017.12 ± 0.059 kg/m3 | mass density (275.15 K, x1 = 0.03815): 1020.73 ± 0.065 kg/m3 | mass density (275.15 K, x1 = 0.04471): 1024.13 ± 0.071 kg/m3 | mass density (275.15 K, x1 = 0.05126): 1027.45 ± 0.078 kg/m3 | mass density (275.15 K, x1 = 0.06722): 1035.23 ± 0.097 kg/m3 | mass density (275.15 K, x1 = 0.08246): 1042.02 ± 0.12 kg/m3 | mass density (276.15 K, x1 = 0.000898): 1000.4 ± 0.04 kg/m3 | mass density (276.15 K, x1 = 0.0018): 1000.86 ± 0.041 kg/m3 | mass density (276.15 K, x1 = 0.00448): 1002.26 ± 0.041 kg/m3 | mass density (276.15 K, x1 = 0.00893): 1004.64 ± 0.043 kg/m3 | mass density (276.15 K, x1 = 0.01771): 1009.4 ± 0.048 kg/m3 | mass density (276.15 K, x1 = 0.02461): 1013.24 ± 0.053 kg/m3 | mass density (276.15 K, x1 = 0.03141): 1016.94 ± 0.059 kg/m3 | mass density (276.15 K, x1 = 0.03815): 1020.54 ± 0.065 kg/m3 | mass density (276.15 K, x1 = 0.04471): 1023.92 ± 0.071 kg/m3 | mass density (276.15 K, x1 = 0.05126): 1027.2 ± 0.077 kg/m3 | mass density (276.15 K, x1 = 0.06722): 1034.87 ± 0.096 kg/m3 | mass density (276.15 K, x1 = 0.08246): 1041.67 ± 0.12 kg/m3 | mass density (277.15 K, x1 = 0.000898): 1000.41 ± 0.04 kg/m3 | mass density (277.15 K, x1 = 0.0018): 1000.87 ± 0.041 kg/m3 | mass density (277.15 K, x1 = 0.00448): 1002.27 ± 0.041 kg/m3 | mass density (277.15 K, x1 = 0.00893): 1004.63 ± 0.043 kg/m3 | mass density (277.15 K, x1 = 0.01771): 1009.35 ± 0.048 kg/m3 | mass density (277.15 K, x1 = 0.02461): 1013.14 ± 0.053 kg/m3 | mass density (277.15 K, x1 = 0.03141): 1016.8 ± 0.058 kg/m3 | mass density (277.15 K, x1 = 0.03815): 1020.37 ± 0.064 kg/m3 | mass density (277.15 K, x1 = 0.04471): 1023.74 ± 0.07 kg/m3 | mass density (277.15 K, x1 = 0.05126): 1027.03 ± 0.077 kg/m3 | mass density (277.15 K, x1 = 0.06722): 1034.56 ± 0.095 kg/m3 | mass density (277.15 K, x1 = 0.08246): 1041.26 ± 0.12 kg/m3 | mass density (278.15 K, x1 = 0.000898): 1000.41 ± 0.04 kg/m3 | mass density (278.15 K, x1 = 0.0018): 1000.86 ± 0.041 kg/m3 | mass density (278.15 K, x1 = 0.00448): 1002.23 ± 0.041 kg/m3 | mass density (278.15 K, x1 = 0.00893): 1004.56 ± 0.043 kg/m3 | mass density (278.15 K, x1 = 0.01771): 1009.26 ± 0.048 kg/m3 | mass density (278.15 K, x1 = 0.02461): 1013.05 ± 0.053 kg/m3 | mass density (278.15 K, x1 = 0.03141): 1016.7 ± 0.059 kg/m3 | mass density (278.15 K, x1 = 0.03815): 1020.22 ± 0.065 kg/m3 | mass density (278.15 K, x1 = 0.04471): 1023.58 ± 0.071 kg/m3 | mass density (278.15 K, x1 = 0.05126): 1026.87 ± 0.077 kg/m3 | mass density (278.15 K, x1 = 0.06722): 1034.3 ± 0.095 kg/m3 | mass density (278.15 K, x1 = 0.08246): 1040.88 ± 0.12 kg/m3 | mass density (278.15 K, x1 = 0.09755): 1046.81 ± 0.14 kg/m3 | mass density (279.18 K, x1 = 0.000898): 1000.38 ± 0.04 kg/m3 | mass density (279.18 K, x1 = 0.0018): 1000.83 ± 0.041 kg/m3 | mass density (279.18 K, x1 = 0.00448): 1002.19 ± 0.041 kg/m3 | mass density (279.18 K, x1 = 0.00893): 1004.5 ± 0.043 kg/m3 | mass density (279.18 K, x1 = 0.01771): 1009.16 ± 0.048 kg/m3 | mass density (279.18 K, x1 = 0.02461): 1012.89 ± 0.053 kg/m3 | mass density (279.18 K, x1 = 0.03141): 1016.44 ± 0.059 kg/m3 | mass density (279.18 K, x1 = 0.03815): 1019.9 ± 0.065 kg/m3 | mass density (279.18 K, x1 = 0.04471): 1023.29 ± 0.071 kg/m3 | mass density (279.18 K, x1 = 0.05126): 1026.57 ± 0.077 kg/m3 | mass density (279.18 K, x1 = 0.06722): 1033.9 ± 0.096 kg/m3 | mass density (279.18 K, x1 = 0.08246): 1040.45 ± 0.12 kg/m3 | mass density (279.18 K, x1 = 0.09755): 1046.32 ± 0.14 kg/m3 | mass density (280.15 K, x1 = 0.000898): 1000.35 ± 0.04 kg/m3 | mass density (280.15 K, x1 = 0.0018): 1000.78 ± 0.041 kg/m3 | mass density (280.15 K, x1 = 0.00448): 1002.14 ± 0.042 kg/m3 | mass density (280.15 K, x1 = 0.00893): 1004.44 ± 0.043 kg/m3 | mass density (280.15 K, x1 = 0.01771): 1009.05 ± 0.048 kg/m3 | mass density (280.15 K, x1 = 0.02461): 1012.74 ± 0.053 kg/m3 | mass density (280.15 K, x1 = 0.03141): 1016.24 ± 0.058 kg/m3 | mass density (280.15 K, x1 = 0.03815): 1019.66 ± 0.064 kg/m3
